Source: US20090325952A1, “PYRAZOLO[3,4-B]PYRIDINE COMPOUNDS, AND THEIR USE AS PDE4 INHIBITORS” (Glaxo Group Limited, priority 2006, published 2009)

Molecular target: PDE5 (human recombinant) (Homo sapiens, UniProt O76074)
Assay: Inhibition of PDE5 activity (FP or SPA assays)
Type: biochemical
Conditions: selectivity PDE4B over PDE5
Description: Human recombinant PDE5 is disclosed in K. Loughney et al., “Isolation and characterisation of cDNAs encoding PDE5A, a human cGMP-binding, cGMP-specific 3′,5′-cyclic nucleotide phosphodiesterase”, Gene, 1998, 216, 139-147.
The ability of compounds to inhibit catalytic activity at PDE4B or 4D (human recombinant), PDE3 (from bovine aorta), PDE5 (human recombinant) or PDE6 (from bovine retina) can optionally be determined by Scintillation Proximity Assay (SPA) in a 96-well format.
Test compounds (as a solution in DMSO, suitably about 2 microlitre (ul) volume of DMSO solution) are preincubated at ambient temperature (room temperature, e.g. 19-23° C.) in Wallac Isoplates (code 1450-514) with PDE enzyme in 50 mM Tris-HCl buffer pH 7.5, 8.3 mM MgCl2, 1.7 mM EGTA, 0.05% (w/v) bovine serum albumin for 10-30 minutes (usually 30 minutes). The enzyme concentration is adjusted so that no more than 20% hydrolysis of the substrate defined below occurs in control wells without compound, during the incubation. […] Bound radioactive product is measured using a WALLAC TRILUX 1450 Microbeta scintillation counter. […] Curves are analysed using ActivityBase and XLfit (ID Business Solutions Limited, 2 Ocean Court, Surrey Research Park, Guildford, Surrey GU2 7QB, United Kingdom) Results are expressed as pIC50 values. […]

CCc1nc2c(cnn2CC)c(NC2CCOCC2)c1CNC(=O)c1ccc(NC(=O)CCCCCCCN(C)CCO)cc1 [Example 1B, N-{[1,6-diethyl-4-(tetrahydro-2H-pyran-4-ylamino)-1H-pyrazolo[3,4-b]pyridin-5-yl]methyl}-4-({8-[(2-hydroxyethyl)(methyl)amino]octanoyl}amino)benzamide]
PDE4B inhibition compared with PDE5 inhibition (pIC50 values): inhibit PDE4B more strongly than they inhibit PDE3, PDE5 and PDE6
